molecular target: T1, human GnRH receptor (Homo sapiens, UniProt P30968); assay: Radioligand binding, 125I-GnRH-A displacement, membranes of HEK 293 cells with human GnRH receptor; conditions: 1 uM; read-out: % Inhib. @ 1 uM hGnRH
T1 construct: expressed in transfected cells; host or cells: HEK 293 (hGnRH-R/293, from Dr. Stuart Sealfon)
T1 sequence (P30968 1-328): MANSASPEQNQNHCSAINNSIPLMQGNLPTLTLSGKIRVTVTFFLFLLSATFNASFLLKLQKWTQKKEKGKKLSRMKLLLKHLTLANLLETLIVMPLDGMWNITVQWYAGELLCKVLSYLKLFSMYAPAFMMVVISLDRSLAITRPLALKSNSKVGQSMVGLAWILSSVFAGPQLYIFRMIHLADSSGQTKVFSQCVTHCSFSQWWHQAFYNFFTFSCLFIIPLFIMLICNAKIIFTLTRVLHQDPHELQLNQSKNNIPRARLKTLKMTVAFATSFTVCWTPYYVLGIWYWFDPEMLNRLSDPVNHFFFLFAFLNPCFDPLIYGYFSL
Procedure, shortened: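 Bound tracer was separated by filtration through polyethyleneimine-soaked GF/C filters and counted by liquid scintillation. IC50 from curve fitting; other species were tested under the same conditions.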

Structure (SMILES)	inhibition at 1 µM
Cc1cc2c(cc1Cc1ccc(C(=O)NCCC3CCCN3C)o1)C(C)(C)CCC2(C)C (stereo not drawn) [drawing 977]	40%

same assay, conditions: 1 h, repeat of % Inhib. at 1 uM; read-out: Repeats @ 1 uM hGnRH

Structure (SMILES)	inhibition at 1 µM
Cc1cc2c(cc1Cc1ccc(C(=O)NCCC3CCCN3C)o1)C(C)(C)CCC2(C)C (stereo not drawn) [drawing 977]	49%

same assay, conditions: 1 h, substrate remaining; 1 uM compound; closer to zero = closer to 100% inhibition; read-out: S%R 1 uM hGnRHR

Structure (SMILES)	remaining activity at 1 µM
Cc1cc2c(cc1Cc1ccc(C(=O)NCc3cccnc3)o1)C(C)(C)CCC2(C)C [Compound 400]	28%
Cc1cc2c(cc1Cc1ccc(C(=O)NCCOCCO)o1)C(C)(C)CCC2(C)C [Compound 401]	32%
Cc1cc2c(cc1Cc1ccc(C(=O)NCc3ccccc3)o1)C(C)(C)CCC2(C)C [Compound 402]	18%
Cc1cc2c(cc1Cc1ccc(C(=O)NC(c3ccccc3)C(O)c3ccccc3)o1)C(C)(C)CCC2(C)C (stereo not drawn) [Compound 403]	44%
COc1ccccc1CNC(=O)c1ccc(Cc2cc3c(cc2C)C(C)(C)CCC3(C)C)o1 [Compound 404]	13%
Cc1cc2c(cc1Cc1ccc(C(=O)NCCc3ccccc3)o1)C(C)(C)CCC2(C)C [Compound 405]	40%
Cc1cc2c(cc1Cc1ccc(C(=O)NCCNc3ccccc3)o1)C(C)(C)CCC2(C)C [Compound 406]	30%
Cc1cc2c(cc1Cc1ccc(C(=O)NCc3ccco3)o1)C(C)(C)CCC2(C)C [Compound 407]	20%
Cc1cc2c(cc1Cc1ccc(C(=O)NCc3ccccc3F)o1)C(C)(C)CCC2(C)C [Compound 408]	16%
Cc1cc2c(cc1Cc1ccc(C(=O)NCc3ccc(Cl)cc3)o1)C(C)(C)CCC2(C)C [Compound 409]	32%
COc1cccc(CNC(=O)c2ccc(Cc3cc4c(cc3C)C(C)(C)CCC4(C)C)o2)c1OC [Compound 410]	21%
COc1ccc(CNC(=O)c2ccc(Cc3cc4c(cc3C)C(C)(C)CCC4(C)C)o2)cc1OC [Compound 411]	28%
CCOc1ccccc1CNC(=O)c1ccc(Cc2cc3c(cc2C)C(C)(C)CCC3(C)C)o1 [Compound 412]	49%
Cc1ccccc1CNC(=O)c1ccc(Cc2cc3c(cc2C)C(C)(C)CCC3(C)C)o1 [Compound 413]	16%
COc1ccc(CNC(=O)c2ccc(Cc3cc4c(cc3C)C(C)(C)CCC4(C)C)o2)cc1 [Compound 414]	10%
Cc1cc2c(cc1Cc1ccc(C(=O)NCc3cccs3)o1)C(C)(C)CCC2(C)C [Compound 415]	18%
Cc1cc2c(cc1Cc1ccc(C(=O)NCc3cccc(Cl)c3Cl)o1)C(C)(C)CCC2(C)C [Compound 416]	34%
Cc1cc2c(cc1Cc1ccc(C(=O)NCc3ccccc3Cl)o1)C(C)(C)CCC2(C)C [Compound 417]	20%
Cc1cc2c(cc1Cc1ccc(C(=O)NCCc3ccccc3Cl)o1)C(C)(C)CCC2(C)C [Compound 418]	42%

Structure (SMILES)	remaining activity at 1 µM
COc1ccccc1CCNC(=O)c1ccc(Cc2cc3c(cc2C)C(C)(C)CCC3(C)C)o1 [Compound 419]	36%
Cc1cc2c(cc1Cc1ccc(C(=O)NC(CO)Cc3ccccc3)o1)C(C)(C)CCC2(C)C (stereo not drawn) [Compound 420]	28%
Cc1cc2c(cc1Cc1ccc(C(=O)NCc3ccccc3Oc3ccccc3CO)o1)C(C)(C)CCC2(C)C [Compound 421]	48%
Cc1cc2c(cc1Cc1ccc(C(=O)NCc3cccc4ccccc34)o1)C(C)(C)CCC2(C)C [Compound 422]	34%
Cc1cc2c(cc1Cc1ccc(C(=O)NC(C)CCc3ccccc3)o1)C(C)(C)CCC2(C)C (stereo not drawn) [Compound 423]	49%
Cc1cc2c(cc1Cc1ccc(C(=O)NCCCN3CCCC3=O)o1)C(C)(C)CCC2(C)C [Compound 424]	31%
Cc1cc2c(cc1Cc1ccc(C(=O)NCc3ccc(Cl)cc3Cl)o1)C(C)(C)CCC2(C)C [Compound 425]	42%
Cc1cc2c(cc1Cc1ccc(C(=O)NCc3ccc(F)cc3)o1)C(C)(C)CCC2(C)C [Compound 426]	30%
Cc1cc2c(cc1Cc1ccc(C(=O)NCc3cccc(Cl)c3)o1)C(C)(C)CCC2(C)C [Compound 427]	20%
Cc1cc2c(cc1Cc1ccc(C(=O)NC(C)c3ccccc3)o1)C(C)(C)CCC2(C)C (stereo not drawn) [Compound 428]	46%
COc1cccc(CCNC(=O)c2ccc(Cc3cc4c(cc3C)C(C)(C)CCC4(C)C)o2)c1OC [Compound 429]	40%
COc1cc(CCNC(=O)c2ccc(Cc3cc4c(cc3C)C(C)(C)CCC4(C)C)o2)cc(OC)c1 [Compound 430]	55%
Cc1cc2c(cc1Cc1ccc(C(=O)NC3CC3)o1)C(C)(C)CCC2(C)C [Compound 431]	47%
COCCNC(=O)c1ccc(Cc2cc3c(cc2C)C(C)(C)CCC3(C)C)o1 [Compound 432]	42%
COc1ccc(CCNC(=O)c2ccc(Cc3cc4c(cc3C)C(C)(C)CCC4(C)C)o2)cc1 [Compound 433]	54%
Cc1cccc(CNC(=O)c2ccc(Cc3cc4c(cc3C)C(C)(C)CCC4(C)C)o2)c1 [Compound 434]	6%
Cc1ccc(CNC(=O)c2ccc(Cc3cc4c(cc3C)C(C)(C)CCC4(C)C)o2)cc1 [Compound 435]	12%
Cc1cc2c(cc1Cc1ccc(C(=O)NCCC#N)o1)C(C)(C)CCC2(C)C [Compound 436]	58%
Cc1cc2c(cc1Cc1ccc(C(=O)NCCc3cccc(F)c3)o1)C(C)(C)CCC2(C)C [Compound 437]	40%

Structure (SMILES)	remaining activity at 1 µM
Cc1cc2c(cc1Cc1ccc(C(=O)NCCOc3ccccc3)o1)C(C)(C)CCC2(C)C [Compound 438]	7%
COc1cccc(CNC(=O)c2ccc(Cc3cc4c(cc3C)C(C)(C)CCC4(C)C)o2)c1 [Compound 439]	23%
Cc1ccc(CNC(=O)c2ccc(Cc3cc4c(cc3C)C(C)(C)CCC4(C)C)o2)cc1C [Compound 440]	22%
Cc1cc2c(cc1Cc1ccc(C(=O)NCc3cccc(C)c3C)o1)C(C)(C)CCC2(C)C [Compound 441]	17%
Cc1ccc(CCNC(=O)c2ccc(Cc3cc4c(cc3C)C(C)(C)CCC4(C)C)o2)cc1 [Compound 442]	50%
Cc1cc2c(cc1Cc1ccc(C(=O)NCc3cccc(F)c3)o1)C(C)(C)CCC2(C)C [Compound 443]	19%
Cc1cc2c(cc1Cc1ccc(C(=O)NCC(O)c3ccccc3)o1)C(C)(C)CCC2(C)C (stereo not drawn) [Compound 444]	32%
Cc1cc2c(cc1Cc1ccc(C(=O)NCc3ccc(F)cc3F)o1)C(C)(C)CCC2(C)C [Compound 445]	22%
Cc1cc2c(cc1Cc1ccc(C(=O)NCCc3ccc(F)cc3)o1)C(C)(C)CCC2(C)C [Compound 446]	55%
Cc1cc2c(cc1Cc1ccc(C(=O)NCc3ccc(N(C)C)cc3)o1)C(C)(C)CCC2(C)C [Compound 447]	18%
COc1cc(CNC(=O)c2ccc(Cc3cc4c(cc3C)C(C)(C)CCC4(C)C)o2)ccc1O [Compound 448]	46%
Cc1cc2c(cc1Cc1ccc(C(=O)NCc3ccccc3Br)o1)C(C)(C)CCC2(C)C [Compound 449]	42%
COc1ccc(CNC(=O)c2ccc(Cc3cc4c(cc3C)C(C)(C)CCC4(C)C)o2)c(OC)c1 [Compound 450]	6%
Cc1cc2c(cc1Cc1ccc(C(=O)NCc3cccc([N+](=O)[O-])c3)o1)C(C)(C)CCC2(C)C [Compound 451]	24%
Cc1cc2c(cc1Cc1ccc(C(=O)NC(C#N)c3ccccc3)o1)C(C)(C)CCC2(C)C (stereo not drawn) [Compound 452]	55%
Cc1cc2c(cc1Cc1ccc(C(=O)NCc3ccc(Br)cc3)o1)C(C)(C)CCC2(C)C [Compound 453]	50%
Cc1cc2c(cc1Cc1ccc(C(=O)NCc3cccc(Br)c3)o1)C(C)(C)CCC2(C)C [Compound 454]	36%
Cc1cc2c(cc1Cc1ccc(C(=O)NC(C)c3ccc([N+](=O)[O-])cc3)o1)C(C)(C)CCC2(C)C (stereo not drawn) [Compound 455]	58%

same assay, conditions: 1 h, substrate remaining; 10 uM compound; closer to zero = closer to 100% inhibition; read-out: S%R 10 uM hGnRHR

Structure (SMILES)	remaining activity at 10 µM
COc1ccc(NC(=O)c2ccc(Cc3cc4c(cc3C)C(C)(C)CCC4(C)C)o2)c(Oc2ccc(Cl)cc2)n1 [Compound 391]	48%
CC(=O)c1cccc(NC(=O)c2ccc(Cc3cc4c(cc3C)C(C)(C)CCC4(C)C)o2)c1 [Compound 392]	0%
COC(=O)c1ccc(NC(=O)c2ccc(Cc3cc4c(cc3C)C(C)(C)CCC4(C)C)o2)c(O)c1 [Compound 393]	44%
Cc1cc2c(cc1Cc1ccc(C(=O)Nc3c(C)cccc3C(C)C)o1)C(C)(C)CCC2(C)C [Compound 394]	57%
Cc1cc2c(cc1Cc1ccc(C(=O)Nc3c(Cl)cc(Cl)cc3C(F)(F)F)o1)C(C)(C)CCC2(C)C [Compound 395]	40%
CC(=O)c1ccc(NC(=O)c2ccc(Cc3cc4c(cc3C)C(C)(C)CCC4(C)C)o2)cc1 [Compound 396]	55%
Cc1cc2c(cc1Cc1ccc(C(=O)Nc3c(C)cccc3C)o1)C(C)(C)CCC2(C)C [Compound 397]	43%
CCc1cccc(C)c1NC(=O)c1ccc(Cc2cc3c(cc2C)C(C)(C)CCC3(C)C)o1 [Compound 399]	41%

Source: patent publication US7101878B1 (Agouron Pharmaceuticals, Inc., priority 1998, dated 2006)
